TGI data for 16 molecules are collected here from PubChem BioAssay (NCI).

Some test systems named below: CCRF-CEM leukemia; EKVX NSCLC; HCT-116 colon; HCT-15 colon; HL-60(TB) leukemia; MALME-3M melanoma; MCF7 breast; OVCAR-3 ovarian; OVCAR-4 ovarian; SNB-19 CNS; SNB-75 CNS; U251 CNS; UO-31 renal; ACHN renal.
What all share (assay): NCI-60 cell line screen, 48 h

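How tested: cells in 96-well plates exposed to compound for 48 hours at five concentrations. TGI marks complete inhibition of growth.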 Where a SMILES comes first, the peptide text is derived from it. The star is where a group is joined. Boc = CC(C)(C)OC(=O)*

For the molecule `COC(=O)/N=[N+](\[O-])C(c1ccc(Cl)cc1)c1ccc(Cl)cc1`, the TGI is more than 100 µM in the assay with CCRF-CEM leukemia; more than 100 µM in the assay on EKVX NSCLC; 95.3 µM with HCT-116 colon; more than 100 µM in the assay with HCT-15 colon; 97.3 µM in the assay on HL-60(TB) leukemia; more than 100 µM with MALME-3M melanoma. Also, the TGI in the assay on MCF7 breast, in the assay with OVCAR-3 ovarian, with OVCAR-4 ovarian, with SNB-19 CNS, in the assay with SNB-75 CNS and with U251 CNS was more than 100 µM each time. Also, in the assay with UO-31 renal, the TGI amounted to 51.2 µM.

With `CC(C)C(=O)CC(Sc1ccc(N)cc1)c1ccccc1` (configuration not stated), the TGI with ACHN renal is 58.3 µM; in the assay with CCRF-CEM leukemia it was 70.7 µM; in the assay with HCT-116 colon it was 28.7 µM; in the assay with HCT-15 colon, more than 100 µM; with HL-60(TB) leukemia, 49.2 µM; in the assay on MALME-3M melanoma it was more than 100 µM. The TGI in the assay on MCF7 breast is 47.1 µM; in the assay with OVCAR-3 ovarian, 67.8 µM; in the assay on SNB-19 CNS, more than 100 µM; in the assay on SNB-75 CNS, more than 100 µM; with U251 CNS it was 32.9 µM; in the assay with UO-31 renal, more than 100 µM.

In the case of `COC(=O)C1=C(O)C(C(=O)OC)[C@]2(O)[C@H](C(=O)OC)[C@H]1C[C@@H](c1ccc(Cl)cc1Cl)[C@H]2C(=O)OC` (some centres not stated), the TGI was 42.4 µM with ACHN renal; more than 100 µM in the assay on EKVX NSCLC; 18.9 µM in the assay on HCT-116 colon; 27.6 µM in the assay on HCT-15 colon; 7.9 µM in the assay with HL-60(TB) leukemia; 20.6 µM in the assay on MALME-3M melanoma. Further, the TGI in the assay with MCF7 breast was 23 µM; in the assay with OVCAR-3 ovarian, 24.9 µM; in the assay on OVCAR-4 ovarian it was 67.6 µM; in the assay with SNB-19 CNS it was 24.3 µM; in the assay on SNB-75 CNS, 37.2 µM; with U251 CNS, 14.4 µM. The same molecule displayed a TGI in the assay with UO-31 renal of 21.1 µM.

For `Cc1ccc([N+](=O)[O-])cc1S(=O)(=O)Nc1ccc(C2=NOC(c3ccccc3)C2)cc1` (configuration not stated), the TGI was 50.4 µM with ACHN renal; 59.2 µM with CCRF-CEM leukemia; 69.1 µM with EKVX NSCLC; 24.1 µM in the assay with HCT-116 colon; more than 100 µM in the assay on HCT-15 colon; 25.2 µM in the assay on HL-60(TB) leukemia. The TGI is 68.2 µM in the assay with MALME-3M melanoma; 16.5 µM with MCF7 breast; 10.5 µM in the assay on OVCAR-3 ovarian; 11.8 µM with OVCAR-4 ovarian; 55.5 µM in the assay on SNB-19 CNS; 70.3 µM in the assay on SNB-75 CNS. The molecule further had a TGI with UO-31 renal of 72.1 µM.

`c1ccc2nc3c(nc2c1)sc1nc2ccccc2n13`: the TGI with ACHN renal, in the assay with CCRF-CEM leukemia, with EKVX NSCLC, with HCT-116 colon, in the assay with HCT-15 colon and in the assay on HL-60(TB) leukemia was more than 100 µM throughout. In addition, the TGI in the assay with MALME-3M melanoma, in the assay on MCF7 breast, in the assay on OVCAR-3 ovarian, in the assay on SNB-19 CNS, with SNB-75 CNS and in the assay on U251 CNS was more than 100 µM in each case. For the same molecule, in the assay with UO-31 renal, the TGI was more than 100 µM.

As for `CCOC(=O)/C(=C\NC[C@@H](C)O)c1nc2ccccc2[nH]1`, the TGI is 90.4 µM in the assay with ACHN renal; more than 100 µM in the assay with EKVX NSCLC; more than 100 µM in the assay with HCT-116 colon; more than 100 µM in the assay with HCT-15 colon; 90.4 µM with HL-60(TB) leukemia; more than 100 µM with MALME-3M melanoma. Besides, the TGI in the assay on MCF7 breast is more than 100 µM; in the assay with OVCAR-3 ovarian, more than 100 µM; with OVCAR-4 ovarian, more than 100 µM; in the assay with SNB-19 CNS, more than 100 µM; in the assay on SNB-75 CNS, more than 100 µM; in the assay with UO-31 renal, 4.02 µM.

`CC(SC(=S)N1CCCC1)C(=O)Nc1nnc(-c2ccc(Cl)cc2)o1` (configuration not stated): the TGI is more than 100 µM in the assay on ACHN renal; 50 µM with HCT-116 colon; more than 100 µM with HCT-15 colon; 0.143 µM in the assay on HL-60(TB) leukemia; 84.2 µM in the assay with MALME-3M melanoma; more than 100 µM in the assay on MCF7 breast. Further, the TGI in the assay with OVCAR-3 ovarian was more than 100 µM; in the assay on OVCAR-4 ovarian, more than 100 µM; with SNB-19 CNS, more than 100 µM; in the assay with SNB-75 CNS, more than 100 µM; in the assay with U251 CNS, more than 100 µM; in the assay on UO-31 renal it was 63.9 µM.

Consider `N#Cc1c(Cl)cccc1Oc1ccc(S(=O)(=O)/N=C(\NO)Nc2ccc(Cl)cc2)cc1`, for which the TGI was 29.1 µM in the assay on ACHN renal; 43.9 µM in the assay with CCRF-CEM leukemia; 29 µM in the assay with EKVX NSCLC; 27.2 µM in the assay on HCT-116 colon; 34.1 µM in the assay on HCT-15 colon; 37.8 µM with HL-60(TB) leukemia. The TGI in the assay on MALME-3M melanoma was determined as 33.9 µM; in the assay on MCF7 breast, 46.2 µM; with OVCAR-3 ovarian, 29.2 µM; in the assay with OVCAR-4 ovarian it was 31.4 µM; in the assay with SNB-19 CNS it was 30 µM; in the assay on U251 CNS, 33.1 µM. The molecule also had a TGI with UO-31 renal of 27.2 µM.

Turning to `COc1ccccc1/[N+]([O-])=C/c1ccccc1OC(=S)S`, the TGI was more than 100 µM with ACHN renal; more than 100 µM in the assay on EKVX NSCLC; more than 100 µM in the assay on HCT-116 colon; more than 100 µM with HCT-15 colon; 74.5 µM with HL-60(TB) leukemia; more than 100 µM in the assay on MALME-3M melanoma. For the same molecule, the TGI in the assay on MCF7 breast, in the assay on OVCAR-3 ovarian, in the assay with OVCAR-4 ovarian, in the assay with SNB-19 CNS, with SNB-75 CNS and with U251 CNS was more than 100 µM in each case. In the assay with UO-31 renal, the TGI is more than 100 µM.

For `CCOc1cc(NC(C)=O)ccc1C(=O)NN1C(=O)C(Cl)C1c1ccc(O)c(OC)c1` (configuration not stated), the TGI with ACHN renal is 30.3 µM; with CCRF-CEM leukemia, 25.8 µM; in the assay with EKVX NSCLC it was 31.5 µM; in the assay with HCT-116 colon, 37.7 µM; with HCT-15 colon it was 29.9 µM; with HL-60(TB) leukemia, 38.3 µM. The TGI came out at 22 µM in the assay with MALME-3M melanoma; 30.4 µM in the assay on MCF7 breast; 38.5 µM in the assay on OVCAR-3 ovarian; 31.6 µM in the assay with OVCAR-4 ovarian; 29.5 µM in the assay on SNB-19 CNS; 24.1 µM in the assay on SNB-75 CNS. Also, the TGI in the assay with UO-31 renal worked out at 11.1 µM.

For `CCOC(=O)NC(OCCN(C)C)(C(F)(F)F)C(F)(F)F`, the TGI in the assay on ACHN renal, in the assay on CCRF-CEM leukemia, in the assay with EKVX NSCLC, in the assay on HCT-116 colon, with HCT-15 colon and in the assay on HL-60(TB) leukemia was more than 100 µM in each case. Besides, the TGI in the assay with MALME-3M melanoma, with MCF7 breast, with OVCAR-3 ovarian, with SNB-19 CNS, with SNB-75 CNS and with U251 CNS was more than 100 µM throughout. Further, the TGI in the assay on UO-31 renal is more than 100 µM.

For the molecule `COc1ccc(-c2c(C#N)c(N)n(C3OCC(O)C(O)C3O)c(=S)c2C#N)cc1` (configuration not stated), the TGI with ACHN renal, in the assay with CCRF-CEM leukemia, in the assay on HCT-15 colon, with HL-60(TB) leukemia, with MALME-3M melanoma and in the assay on MCF7 breast was more than 100 µM in each case. The TGI in the assay on OVCAR-3 ovarian, with SNB-19 CNS, with SNB-75 CNS and with UO-31 renal was more than 100 µM each time.

Take `CCOC(=O)NC(Nc1cccc(F)c1)(C(F)(F)F)C(F)(F)F`: the TGI with ACHN renal, in the assay on CCRF-CEM leukemia, in the assay on EKVX NSCLC, with HCT-116 colon, with HCT-15 colon and with HL-60(TB) leukemia was more than 100 µM in each case. Besides, the TGI in the assay with MALME-3M melanoma, with MCF7 breast, in the assay with OVCAR-3 ovarian, in the assay with SNB-19 CNS, in the assay with SNB-75 CNS and in the assay with U251 CNS was more than 100 µM throughout. Further, the TGI with UO-31 renal is more than 100 µM.

Regarding `N#Cc1c(-c2cccc(Br)c2)cc(-c2ccc(Cl)cc2)nc1N`, the TGI in the assay on ACHN renal was 51.8 µM; in the assay on CCRF-CEM leukemia, 87.5 µM; with EKVX NSCLC it was 56.7 µM; in the assay on HCT-116 colon it was 34.8 µM; in the assay with HCT-15 colon, 30 µM; with HL-60(TB) leukemia, 69 µM. In addition, the TGI in the assay with MALME-3M melanoma is 70.9 µM; in the assay with MCF7 breast, more than 100 µM; in the assay with OVCAR-3 ovarian, 77.3 µM; in the assay on OVCAR-4 ovarian, 13.5 µM; with SNB-19 CNS it was 40.1 µM; in the assay with U251 CNS, 32.8 µM. Moreover, the TGI with UO-31 renal is 48.7 µM.

For the molecule `COC(=O)C(Cc1c[nH]c2ccccc12)NC(=O)C(Cc1c[nH]c2ccccc12)NC(=O)C(Cc1c[nH]c2ccccc12)NC(=O)C(Cc1c[nH]c2ccccc12)NC(=O)C(Cc1c[nH]c2ccccc12)NC(=O)OC(C)(C)C` (configuration not stated) (Boc-WWWWW-OMe; configuration not given here), the TGI is more than 100 µM with ACHN renal; more than 100 µM in the assay on CCRF-CEM leukemia; more than 100 µM with HCT-116 colon; more than 100 µM in the assay with HCT-15 colon; 81.6 µM in the assay with HL-60(TB) leukemia; more than 100 µM with MALME-3M melanoma. For the same molecule, the TGI in the assay with MCF7 breast, with OVCAR-3 ovarian, in the assay on OVCAR-4 ovarian, with SNB-19 CNS, with SNB-75 CNS and in the assay with U251 CNS was more than 100 µM throughout. The molecule also gave a TGI with UO-31 renal of more than 100 µM.

On to `O=c1[nH]nc(Cc2ccccc2)n1N=C1CCCCC1`, for which the TGI with ACHN renal, in the assay with CCRF-CEM leukemia, with EKVX NSCLC, in the assay on HCT-116 colon, in the assay on HCT-15 colon and in the assay with HL-60(TB) leukemia was more than 100 µM throughout. The TGI with MALME-3M melanoma, in the assay on MCF7 breast, in the assay on OVCAR-3 ovarian, with OVCAR-4 ovarian, with SNB-19 CNS and in the assay on U251 CNS was more than 100 µM each time. Moreover, the TGI in the assay on UO-31 renal is more than 100 µM.
